In series [1] the target is T1, BCRP (Homo sapiens, UniProt Q9UNQ0).
T1 sequence (Q9UNQ0 1-655): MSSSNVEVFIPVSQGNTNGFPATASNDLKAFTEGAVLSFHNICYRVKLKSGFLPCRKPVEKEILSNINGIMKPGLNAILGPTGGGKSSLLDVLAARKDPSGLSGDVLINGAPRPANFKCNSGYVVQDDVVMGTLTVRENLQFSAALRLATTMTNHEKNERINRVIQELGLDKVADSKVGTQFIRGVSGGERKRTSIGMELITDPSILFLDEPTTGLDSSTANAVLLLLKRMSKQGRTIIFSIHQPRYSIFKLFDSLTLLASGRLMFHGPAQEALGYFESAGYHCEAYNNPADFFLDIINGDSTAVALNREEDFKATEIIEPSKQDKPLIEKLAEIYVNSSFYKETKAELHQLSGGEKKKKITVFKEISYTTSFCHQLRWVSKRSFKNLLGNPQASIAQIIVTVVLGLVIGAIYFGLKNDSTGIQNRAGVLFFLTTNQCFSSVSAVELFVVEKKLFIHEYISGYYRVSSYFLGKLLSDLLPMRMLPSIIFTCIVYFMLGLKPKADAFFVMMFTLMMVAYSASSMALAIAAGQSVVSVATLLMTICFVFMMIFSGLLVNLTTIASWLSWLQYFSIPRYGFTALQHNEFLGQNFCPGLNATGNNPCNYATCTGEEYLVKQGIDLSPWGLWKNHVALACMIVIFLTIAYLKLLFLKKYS
As to the kind of experiment: competitive substrate efflux assay (BODIPY-prazosin accumulation) in hCMEC/D3 cells. The series is classed as cell-based. The procedure:
The potential of ASMs to compete with a known fluorescent substrate of BCRP, BPZ in hCMEC/D3 cells was examined using a competitive substrate efflux assay that has previously been used in various studies. The interaction of CBZ, DCLB, OXC, TPM, and LEVI with BCRP was evaluated. Initially, hCMEC/D3 were seeded in 12‐well plates (cat. no. 150628, Nunc, Thermo Fisher Scientific, MA, USA) at 70‐80% confluency for 24 h. In this study, Ko143 was used for BCRP inhibition. The cultured cells were incubated at 37°C for half an hour in media containing BPZ with either the test ASMs or Ko143. Cells were washed with chilled 1X PBS three times and again incubated at 37°C for 1 h 30 min in BPZ‐free media with or without Ko143. Cells were washed three times with ice‐cold 1X PBS to terminate the assay. Cell lysis was performed by adding 1% triton X‐100, followed by incubating the cells for 15 min at 37°C. 20 µl of cell lysate was placed in 384‐well black assay plates for fluorescence detection (excitation at 488 nm; emission at 530 nm) to Infinite 200 PRO NanoQuant (Tecan, Zurich, Switzerland). The rest of the cell lysate was used for determining protein levels using the BCA protein estimation method to normalize the observed fluorescence intensity with total protein yield. The data were shown as a fold increment in intracellular fluorescence of BPZ relative to the control.

Series [2] deals with T1, BCRP. Briefly: bidirectional transport assay across hCMEC/D3 cell monolayer with or without Ko143. To be noted: for transport by BCRP (conclusion of bidirectional transport assay): ER ≥ 1.5 and significantly reduced by Ko143; for Papp A→B at 2 h, 21 μM / Papp A→B at 2 h, 42 μM / Papp B→A at 2 h, 21 μM / Papp B→A at 2 h, 42 μM / efflux ratio at 2 h / efflux ratio at 2 h, 21 μM / efflux ratio at 2 h, 42 μM / Papp A→B at 2 h, 5 μM / Papp B→A at 2 h, 5 μM / Papp A→B at 2 h, 25 µM / Papp A→B at 2 h, […] µM / Papp B→A at 2 h, 25 µM / Papp B→A at 2 h, […] µM / Papp A→B at 2 h, 15 µM / Papp A→B at 2 h, 60 µM / Papp B→A at 2 h, 15 µM / Papp B→A at 2 h, 60 µM / efflux ratio at 2 h, 15 µM / efflux ratio at 2 h, 60 µM: human; for efflux ratio at 2 h: pH 7.4, Efflux ratio (ER) without inhibitor, at all the tested concentrations. How it is done:
For transport assays, hCMEC/D3 cells were seeded on collagen type I‐coated Transwell inserts (polycarbonate 12‐well, pore size […]) (cat. no. CLS3460; Corning, NY, USA) at 80% confluency and cultured as described in section 2.5. In brief, the drug was dissolved in Hanks’ balanced salt solution supplemented with 10 mM HEPES, 1 mM Na‐Pyruvate, pH 7.4 at 37°C (transport buffer). Initially, both sides of the chamber were washed with 1X PBS and the assay was performed with pre‐warmed transport buffer. 0.5 ml or 1.5 ml of the drug solution, with or without BCRP‐specific inhibitor Ko143 (1 μM) was added to either the apical side or basolateral side of the monolayer, respectively, and fresh transport buffer was added to the opposite side. Aliquots of 100 μl samples were taken from the opposite sides every 30 min for 2 h, and the same amount of fresh transport buffer was added to the same chamber after each sampling. […] Concentrations of ASMs were evaluated by HPLC or LC/MS. Apparent permeability (Papp) is defined as the transport rate of ASM and efflux ratio (ER) was calculated as the ratio of Papp in the basolateral‐to‐apical (Papp(B→A)) direction to the Papp in the apical‐to‐basolateral (Papp(A→B)) direction. The samples were stored at −20°C until analysis. […] Fluorescence detection of lucifer yellow (excitation at 430 nm, and emission at 535 nm) was carried out with Infinite 200 PRO NanoQuant (Tecan, Zurich, Switzerland). […] All transport assays were performed in triplicate.
The calculation for apparent permeability coefficient, Papp, was performed as described before. Papp=dQr/dt/A×C0 where dQr/dt is the cumulative amount in the receiver side vs time in μM/s
A is the area of the cell monolayer
C0 is the initial concentration of the dosing solution (μM).
And, Efflux ratio=Papp(B−to−A)/Papp(A−to−B)

Details of series [3]: method as in Johannessen, 2004; Patsalos, 2008; Lee, 2016. To be noted: patients with epilepsy; ref Johannessen, 2004; Patsalos, 2008; Lee, 2016; cited from earlier work.
The target of series [4] is T1, BCRP. Further details: host or cells: MCF-7 cells overexpressing BCRP. Conditions: previous study; cited from earlier work.
Series [5] concerns the target T1, BCRP. Briefly: vanadate-sensitive BCRP ATPase assay (membrane vesicles from MCF-7 cells overexpressing BCRP). The series is classed as biochemical. Further details: host or cells: MCF-7 cells overexpressing BCRP. Conditions: 40 µM. The procedure:
To assess the interaction between ASMs and BCRP, a vanadate‐sensitive ATPase assay was performed as per the manufacturer's instructions manual. […] After 10 min, 1x developer solution was added and kept for 2 min. To stop the reaction, 100 µL blocker solution was added and incubated for 30 min. at 37°C. The optical densities were measured at 620 nm using an Infinite 200 PRO NanoQuant (Tecan, Zurich, Switzerland) plate reader. 1 μM Ko143 was used as a positive control for BCRP inhibition. Ko143 was used at a concentration that is known to inhibit BCRP efficiently. The results were expressed as vanadate‐sensitive ATPase activity that is based on the difference in inorganic phosphate released between samples with and without vanadate. This will evaluate the ability of the test ASM to stimulate BCRP's baseline ATPase activity.

As to `NC(=O)N1c2ccccc2C=Cc2ccccc21` [CBZ, carbamazepine], at BCRP [1], the “intracellular accumulation of BPZ in hCMEC/D3 cells” value (from here on “intracellular accumulation of BPZ”) is on record as “did not affect”. At BCRP [2] (hCMEC/D3 monolayer), the “transport by BCRP (conclusion of bidirectional transport assay)” value (from here on “transport by BCRP”) is listed as “not” and the efflux ratio – broadly, a quotient of directional permeabilities that is used to spot active efflux – at 2 h is under 1.5. Also, at BCRP [2] (pH 7.4), the Papp A→B (usually how fast a substance crosses the layer from the apical side) at 2 h, 21 μM worked out at 3.37 ×10⁻⁶ cm/s; the apical-to-basolateral permeability (Papp A→B) at 2 h, 42 μM came to 3.37 ×10⁻⁶ cm/s; the basolateral-to-apical permeability (Papp B→A) (usually the apparent permeability from the basolateral to the apical side of a cell layer) at 2 h, 21 μM is 4.27 ×10⁻⁶ cm/s; the Papp B→A at 2 h, 42 μM worked out at 4.04 ×10⁻⁶ cm/s. Moreover, on BCRP [2] (pH 7.4, Efflux ratio (ER), hCMEC/D3 without inhibitor Ko143, 21 μM, hCMEC/D3 monolayer), the efflux ratio at 2 h, 21 μM was 1.23. Further, the efflux ratio at 2 h, 42 μM at BCRP [2] (pH 7.4, Efflux ratio (ER), hCMEC/D3 without inhibitor Ko143, 42 μM, hCMEC/D3 monolayer) is 1.18. For the same molecule, at BCRP [2] (pH 7.4, with Ko143 1 μM), the Papp A→B at 2 h, 21 μM was 4.72 ×10⁻⁶ cm/s; the Papp A→B at 2 h, 42 μM was found to be 3.82 ×10⁻⁶ cm/s; the Papp B→A at 2 h, 21 μM amounted to 3.03 ×10⁻⁶ cm/s; the Papp B→A at 2 h, 42 μM worked out at 4.27 ×10⁻⁶ cm/s. The efflux ratio at 2 h, 21 μM on BCRP [2] (pH 7.4, with Ko143 1 μM, Efflux ratio (ER), hCMEC/D3 with inhibitor Ko143, 21 μM, hCMEC/D3 monolayer, 1 μM Ko143) is 0.98. Besides, the efflux ratio at 2 h, 42 μM on BCRP [2] (pH 7.4, with Ko143 1 μM, Efflux ratio (ER), hCMEC/D3 with inhibitor Ko143, 42 μM, hCMEC/D3 monolayer, 1 μM Ko143) is 1.12. Also, the “Therapeutic plasma concentration range” value in series [3] is 15 to 45 µM. Also, on BCRP [4], the “stimulation of BCRP ATPase activity” value was “no significant stimulation”.

`CC[C@@H](C(N)=O)N1CCCC1=O` [LEVI, levetiracetam]: at BCRP [1], the “intracellular accumulation of BPZ” value is given as “did not affect”. Also, on BCRP [2] (hCMEC/D3 monolayer), the “transport by BCRP” value is given as “not” and the efflux ratio at 2 h is under 1.5. In addition, the directional transport entry on BCRP [2] (hCMEC/D3 monolayer, data not shown) is reported as “did not show any directional transport”. Also, the “Therapeutic plasma concentration range” value in series [3] was 35 to 120 µM. On BCRP [4], the “stimulation of BCRP ATPase activity” value was “no significant stimulation”.

Take `O=C1c2c(O)ccc(O)c2C(=O)c2c(NCCNCCO)ccc(NCCNCCO)c21` [MXR, mitoxantrone]: the Papp A→B at 2 h, 5 μM at BCRP [2] (pH 7.4) was found to be 5.1 ×10⁻⁶ cm/s; at BCRP [2] (pH 7.4, with Ko143 1 μM) it was 10.2 ×10⁻⁶ cm/s. The apparent permeability from basolateral to apical (Papp B→A) at 2 h, 5 μM is 12.7 ×10⁻⁶ cm/s at BCRP [2] (pH 7.4) and 10.6 ×10⁻⁶ cm/s on BCRP [2] (pH 7.4, with Ko143 1 μM).

Consider `NC(=O)N1c2ccccc2CC(=O)c2ccccc21` [OXC, oxcarbazepine], for which, at BCRP [1] ([…] and […] µM), the “BPZ accumulation in hCMEC/D3 cells” value is given as “significantly increased”. For the same molecule, the “transport by BCRP” value on BCRP [2] (hCMEC/D3 monolayer) is “transports”. Also, at BCRP [2] (pH 7.4), the Papp A→B at 2 h, 25 µM is 2.64 ×10⁻⁶ cm/s; the apical-to-basolateral permeability (Papp A→B) at 2 h, […] µM turned out to be 16.5 ×10⁻⁶ cm/s; the basolateral-to-apical permeability (Papp B→A) at 2 h, 25 µM was found to be 4.72 ×10⁻⁶ cm/s; the Papp B→A at 2 h, […] µM stood at 39.4 ×10⁻⁶ cm/s. Further, on BCRP [2] (pH 7.4, with Ko143 1 μM), the Papp A→B at 2 h, 25 µM worked out at 3.21 ×10⁻⁶ cm/s; the apparent permeability from apical to basolateral (Papp A→B) at 2 h, […] µM was 140 ×10⁻⁶ cm/s; the Papp B→A at 2 h, 25 µM worked out at 3.59 ×10⁻⁶ cm/s; the Papp B→A at 2 h, […] µM was 169 ×10⁻⁶ cm/s. At BCRP [5], the “stimulation of BCRP ATPase activity (activation assay)” value was “significantly stimulated”.

On to `CC1(C)O[C@@H]2[C@@H](CO[C@@]3(COS(N)(=O)=O)OC(C)(C)O[C@@H]23)O1` [TPM, topiramate], for which the “intracellular accumulation of BPZ” value on BCRP [1] is “did not affect”. Also, at BCRP [2] (hCMEC/D3 monolayer), the “transport by BCRP” value is “not” and the efflux ratio at 2 h is under 1.5. At BCRP [2] (pH 7.4), the apical-to-basolateral permeability (Papp A→B) at 2 h, 15 µM came out at 0.71 ×10⁻⁶ cm/s; the Papp A→B at 2 h, 60 µM worked out at 20 ×10⁻⁶ cm/s; the Papp B→A at 2 h, 15 µM is 0.71 ×10⁻⁶ cm/s; the Papp B→A at 2 h, 60 µM was 25.5 ×10⁻⁶ cm/s. On BCRP [2] (pH 7.4, Efflux ratio (ER), hCMEC/D3 without inhibitor Ko143, 15 μM, hCMEC/D3 monolayer), the efflux ratio at 2 h, 15 µM was 1.06. For the same molecule, the efflux ratio at 2 h, 60 µM at BCRP [2] (pH 7.4, Efflux ratio (ER), hCMEC/D3 without inhibitor Ko143, 60 μM, hCMEC/D3 monolayer) came to 1.17. For the same molecule, on BCRP [2] (pH 7.4, with Ko143 1 μM), the apparent permeability from apical to basolateral (Papp A→B) at 2 h, 15 µM came out at 12.3 ×10⁻⁶ cm/s; the Papp A→B at 2 h, 60 µM turned out to be 159 ×10⁻⁶ cm/s; the basolateral-to-apical permeability (Papp B→A) at 2 h, 15 µM worked out at 14.2 ×10⁻⁶ cm/s; the Papp B→A at 2 h, 60 µM is 190 ×10⁻⁶ cm/s. Besides, the efflux ratio at 2 h, 15 µM at BCRP [2] (pH 7.4, with Ko143 1 µM, Efflux ratio (ER), hCMEC/D3 with inhibitor Ko143, 15 μM, hCMEC/D3 monolayer, 1 μM Ko143) stood at 1.16. The efflux ratio at 2 h, 60 µM on BCRP [2] (pH 7.4, with Ko143 1 µM, Efflux ratio (ER), hCMEC/D3 with inhibitor Ko143, 60 μM, hCMEC/D3 monolayer, 1 μM Ko143) turned out to be 1.13. Besides, the “Therapeutic plasma concentration range” value in series [3] is 15 to 60 µM. For the same molecule, on BCRP [4], the “stimulation of BCRP ATPase activity” value is reported as “no significant stimulation”.
